Source: patent US20160053316A1, “Systems and Methods for Determining a C-Peptide Receptor, C-Peptide Receptor, and Methods of Using Same” (Saint Louis University, priority 2012, published 2016)

Experiments:
[1] = tested on: HEK293 cells; assay: C-peptide-induced cFos mRNA expression (RT-PCR) in HEK293 cells; assay type: cell-based, human; conditions: treatment with C-peptide (FIG. 3)
Description: (§1) In utilizing the methodology to determine a C-peptide receptor, three human cell lines were determined (101) to respond to treatment with C-peptide with an up regulation of cFos message as determined by RT-PCR. These three were KATOIII (Human Stomach Carcinoma), HEK 293 (human embryonic kidney cells) and TF-1 (an erythroleukemia cell line). The results of tests to show responsiveness are provided graphically in FIGS. 2, 3, and 4. When these three cell lines were screened for the expression of known orphan GPCRs (103), 24 of the approximately 125 orphan GPCRs were expressed by all three cell types as indicated by the table of FIG. 5. Using bioinformatics, the pool of FIG. 5 can be narrowed (105) by eliminating any candidates already matched to other ligands or that had significant homology to GPCRs that bind to non-peptide targets (15 in this case). This is also shown in FIG. 5 with the items that are eliminated darkened. One GPCR (GPR107) could be eliminated as it was recently determined that this was the cognate receptor for neurostatin. This also allowed it to be used as a convenient control as evidenced later herein.

[2] = biological target: T1, GPR146 (Homo sapiens, UniProt Q96CH1); assay: cFos response to C-peptide in siRNA-transfected KATOIII cells; assay type: cell-based; conditions: 1 nmole C-peptide
T1 construct: endogenous in cells; host or cells: KATOIII (human stomach carcinoma)
T1 sequence (Q96CH1 whole entry): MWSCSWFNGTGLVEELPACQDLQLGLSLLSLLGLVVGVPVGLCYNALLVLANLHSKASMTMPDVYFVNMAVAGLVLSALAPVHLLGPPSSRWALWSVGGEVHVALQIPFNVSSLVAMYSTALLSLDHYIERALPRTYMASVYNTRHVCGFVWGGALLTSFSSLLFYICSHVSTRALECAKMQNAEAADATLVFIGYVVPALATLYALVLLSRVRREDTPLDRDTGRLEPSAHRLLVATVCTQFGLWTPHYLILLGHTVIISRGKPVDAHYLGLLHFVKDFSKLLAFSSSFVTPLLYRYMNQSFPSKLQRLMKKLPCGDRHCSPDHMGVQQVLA
Description: Once the hierarchical candidates were identified and ranked, KATOIII cells were then transfected with siRNA (Integrated DNA technologies) (111) directed against either GPR107 (control), GPR146 (most likely candidate not yet tested) or eGFP (green fluorescent protein-control) using […] (Invitrogen). Five hours later, the media was changed to serum free control media (ATCC) and the serum was starved overnight. Twenty-four (24) hours after transfection with siRNA, cells were treated with 1 nmole C-peptide (Phoenix Pharmaceuticals) for 1 hour, then lysed and RNA were isolated using an RNeasy Kit (Qiagen). RNA was used as a template from the production of cDNA, and changes in cFos expression were determined using RT-PCR (BioRad 2x iQ SyberGreen Master Mix, using a BioRad CFX real time system). […] As this produced the desired negative response (113), GPR146 was the target GPCR (115). The receptiveness of GPR146 to C-peptide has since been verified by additional conventional tests.

[3] = tested on: KATOIII cells; assay: C-peptide-induced cFos mRNA expression (RT-PCR) in KATOIII cells; assay type: cell-based, human
Description: as §1, with “This is also shown in FIG. 5 with the items that are eliminated darkened.” left out, “This also allowed it to be used as a convenient control as evidenced later herein.” left out
To evaluate whether anti-GPR146ex-induced enhancement of receptor capping and co-localization corresponded with an increase in C-peptide-induced cFos expression, KATOIII cells were treated with either vehicle (control media), 1 nM C-peptide, anti-GPR146ex (1:500), or anti-GPR146ex and 1 nM C-peptide for one hour at 37 degrees Celsius. […] Changes in cFos mRNA expression were evaluated using real time PCR (RT-PCR).

[4] = tested on: TF-1 cells; assay: C-peptide-induced cFos mRNA expression (RT-PCR) in TF-1 cells; assay type: cell-based, human; conditions: treatment with C-peptide (FIG. 4)
Description: as §1

cFos expression ([2]; KATOIII cells transfected with Vehicle, GPR107 siRNA or eGFP siRNA (controls), 1 hour): increase in cFos
cFos expression ([2]; KATOIII cells with GPR146 compromised by siRNA, 1 hour (FIG. 6)): failed to respond
Substance: C-peptide
cFos mRNA expression [1]: increase in cFos mRNA expression
cFos mRNA expression, material alone ([3]; one hour at 37 degrees Celsius, 1 nM C-peptide or anti-GPR146ex 1:500 alone (FIG. 7)): increased cFos
cFos mRNA expression ([3]; treatment with C-peptide (FIG. 2)): increase in cFos mRNA expression
cFos mRNA expression [4]: increase in cFos mRNA expression
